Reference: patent US10363251B2, “(+)-morphinans as antagonists of toll-like receptor 9 and therapeutic uses thereof” (Mallinckrodt LLC, priority 2009, dated 2019)

Legend:
Type in all cases: cell-based
[1] = biological target: T1, TLR4 (Homo sapiens, UniProt O00206); test: TLR4 antagonist screening, NF-κB-inducible SEAP reporter in HEK293 cells; details: for Average % Inhibition at TLR4: 10 μM, stimulated with LPS at 100 ng/ml
T1 construct: expressed in transfected cells; host or cells: HEK293
Description: (§1) Stimulation of TLRs 2, 3, 4, 5, 7, 8, and 9 was determined by assessing activation of the transcription factor NF-κB in HEK293 cells that were engineered to express the corresponding receptors. Assessment of TLR stimulation was based on the use of an NF-κB-inducible secreted alkaline phosphatase (SEAP) reporter system in which the SEAP reporter was under the control of a promoter inducible by NF-κB. Thus, the degree of activation of TLRs can be indirectly quantified spectrophotometrically by measuring the amount of the SEAP reporter that is produced.
(§2) The appropriate TLR-expressing cells were plated in Growth Medium in a 96-well plate (25,000-50,000 cells/well). The cells were stimulated with the appropriate positive control ligand or no ligand was added (negative control). The positive control ligands were: HKLM was used to stimulate TLR2; poly(I:C) was used to stimulate TLR3; LPS was used to stimulate TLR4; Flagellin was used to stimulate TLR5; CL097 was used to stimulate TLR7; CL075 was used to stimulate TLR8; CpG oligodeoxynucleotide (ODN) 2006 was used to stimulate TLR9. To test whether (+)-morphinans could block that activation of the TLR, the cells were pretreated with an antagonist for 30 minutes prior to addition of the positive control ligand. For this, 20 μL of the stock test compound solution (100 μM in H2O) was added to give a total volume of 200 μL. […] After a 16-20 hr incubation period at 37° C. in a CO2 incubator, 20 μL of the cell culture supernatant was added to 180 μL of QUANTI-Blue™ Media (InvivoGen, San Diego, Calif.), and the resulting solutions were incubated at 37° C. for an additional 1-3 hours according to the manufacturer's instructions. The OD's of the samples were then read at 650 nm on a Beckman Coulter AD 340C Absorbance Detector.

[2] = biological target: T2, TLR5 (Homo sapiens, UniProt O60602); test: TLR5 antagonist screening, NF-κB-inducible SEAP reporter in HEK293 cells; details: for Average % Inhibition at TLR5: 10 μM, stimulated with Flagellin at 100 ng/ml
T2 construct: expressed in transfected cells; host or cells: HEK293
Description: as §1, §2

[3] = biological target: T3, TLR7 (Homo sapiens, UniProt Q9NYK1); test: TLR7 antagonist screening, NF-κB-inducible SEAP reporter in HEK293 cells; details: for Average % Inhibition at TLR7: 10 μM, stimulated with CL097 at 1 μg/ml
T3 construct: expressed in transfected cells; host or cells: HEK293
T3 sequence (Q9NYK1 27-1049): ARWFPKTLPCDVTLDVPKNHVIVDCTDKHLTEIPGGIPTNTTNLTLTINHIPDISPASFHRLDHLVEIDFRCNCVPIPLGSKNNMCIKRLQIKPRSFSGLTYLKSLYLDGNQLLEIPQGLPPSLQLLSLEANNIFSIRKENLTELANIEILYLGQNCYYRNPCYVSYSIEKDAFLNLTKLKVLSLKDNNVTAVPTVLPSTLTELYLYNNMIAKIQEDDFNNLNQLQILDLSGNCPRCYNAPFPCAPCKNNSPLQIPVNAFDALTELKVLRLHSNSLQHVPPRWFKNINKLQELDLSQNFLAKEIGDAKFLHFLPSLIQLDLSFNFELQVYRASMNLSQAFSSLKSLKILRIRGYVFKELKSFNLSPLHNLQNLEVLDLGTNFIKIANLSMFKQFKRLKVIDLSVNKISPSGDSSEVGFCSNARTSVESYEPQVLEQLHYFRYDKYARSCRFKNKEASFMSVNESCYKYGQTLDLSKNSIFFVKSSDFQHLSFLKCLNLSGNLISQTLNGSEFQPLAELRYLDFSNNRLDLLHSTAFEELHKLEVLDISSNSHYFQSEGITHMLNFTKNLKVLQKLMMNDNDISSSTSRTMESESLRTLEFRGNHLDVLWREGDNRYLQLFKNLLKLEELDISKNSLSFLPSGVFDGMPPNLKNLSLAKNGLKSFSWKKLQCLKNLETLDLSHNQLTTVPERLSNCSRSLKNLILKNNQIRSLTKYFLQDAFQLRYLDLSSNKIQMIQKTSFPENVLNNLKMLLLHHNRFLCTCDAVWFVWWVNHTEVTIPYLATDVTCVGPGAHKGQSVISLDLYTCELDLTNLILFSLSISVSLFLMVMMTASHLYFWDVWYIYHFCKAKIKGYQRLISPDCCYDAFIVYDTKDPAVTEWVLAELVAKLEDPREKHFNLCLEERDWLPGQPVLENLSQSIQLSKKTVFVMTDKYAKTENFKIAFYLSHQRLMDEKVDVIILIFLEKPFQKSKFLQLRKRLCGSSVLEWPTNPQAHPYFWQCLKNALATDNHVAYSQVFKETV
Description: as §1
as §2, with “ligand.” for “ligand. For this, 20 μL of the stock test compound solution (100 μM in H2O) was added to give a total volume of 200 μL.”

T2 sequence (O60602 21-858, species assumed): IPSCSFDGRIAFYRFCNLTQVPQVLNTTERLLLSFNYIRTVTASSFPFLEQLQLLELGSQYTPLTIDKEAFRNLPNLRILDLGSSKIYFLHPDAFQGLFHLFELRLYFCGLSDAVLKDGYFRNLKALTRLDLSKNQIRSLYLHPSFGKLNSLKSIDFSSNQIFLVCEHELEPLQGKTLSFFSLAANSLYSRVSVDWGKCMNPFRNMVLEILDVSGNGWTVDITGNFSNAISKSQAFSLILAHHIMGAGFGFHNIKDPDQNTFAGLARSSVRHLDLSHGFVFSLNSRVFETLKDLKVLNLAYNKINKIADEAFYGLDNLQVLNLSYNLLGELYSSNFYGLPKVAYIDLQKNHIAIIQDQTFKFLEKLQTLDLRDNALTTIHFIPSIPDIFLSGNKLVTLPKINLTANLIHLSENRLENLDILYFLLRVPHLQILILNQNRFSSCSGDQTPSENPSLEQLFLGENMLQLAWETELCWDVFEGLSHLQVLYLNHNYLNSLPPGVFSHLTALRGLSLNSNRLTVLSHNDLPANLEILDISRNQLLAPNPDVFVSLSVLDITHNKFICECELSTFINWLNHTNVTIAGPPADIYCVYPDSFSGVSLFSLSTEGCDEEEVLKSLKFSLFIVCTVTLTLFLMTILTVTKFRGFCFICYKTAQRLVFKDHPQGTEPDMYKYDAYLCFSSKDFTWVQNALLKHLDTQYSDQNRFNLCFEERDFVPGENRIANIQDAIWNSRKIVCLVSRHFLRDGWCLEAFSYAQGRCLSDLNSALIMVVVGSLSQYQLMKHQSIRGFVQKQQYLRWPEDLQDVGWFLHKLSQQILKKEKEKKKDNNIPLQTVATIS
T1 sequence (O00206 24-839, species assumed): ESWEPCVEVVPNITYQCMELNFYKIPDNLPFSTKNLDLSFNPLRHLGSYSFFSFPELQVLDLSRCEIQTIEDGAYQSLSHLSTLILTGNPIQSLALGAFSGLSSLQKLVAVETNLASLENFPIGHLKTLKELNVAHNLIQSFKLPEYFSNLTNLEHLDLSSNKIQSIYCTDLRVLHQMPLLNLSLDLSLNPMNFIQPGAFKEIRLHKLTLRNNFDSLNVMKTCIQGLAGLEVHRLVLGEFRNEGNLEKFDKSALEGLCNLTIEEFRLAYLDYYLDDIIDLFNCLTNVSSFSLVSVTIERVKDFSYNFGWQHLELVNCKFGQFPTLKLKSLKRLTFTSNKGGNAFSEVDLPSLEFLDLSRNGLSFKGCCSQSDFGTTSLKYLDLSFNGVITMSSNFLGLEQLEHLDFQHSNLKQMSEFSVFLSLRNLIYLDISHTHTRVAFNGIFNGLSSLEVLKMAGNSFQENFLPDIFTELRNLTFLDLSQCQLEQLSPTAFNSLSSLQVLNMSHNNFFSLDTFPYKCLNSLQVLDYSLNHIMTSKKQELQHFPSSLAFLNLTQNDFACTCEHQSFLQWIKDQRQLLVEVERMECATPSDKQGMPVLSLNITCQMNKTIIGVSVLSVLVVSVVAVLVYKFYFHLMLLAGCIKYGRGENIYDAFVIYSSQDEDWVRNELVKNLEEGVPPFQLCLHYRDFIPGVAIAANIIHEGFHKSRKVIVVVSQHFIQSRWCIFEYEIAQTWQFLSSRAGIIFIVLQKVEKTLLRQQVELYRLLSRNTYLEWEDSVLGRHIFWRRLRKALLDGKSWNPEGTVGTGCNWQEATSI
T1 sequence (Q9Y6Y9 17-160 partner limits assumed, species assumed): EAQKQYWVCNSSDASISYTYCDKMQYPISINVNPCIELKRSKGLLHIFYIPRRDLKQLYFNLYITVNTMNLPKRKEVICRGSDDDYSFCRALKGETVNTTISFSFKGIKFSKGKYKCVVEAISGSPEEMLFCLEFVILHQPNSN

Structure (SMILES) | inhibition at 10 µM ([1]; HEK293, stimulated with LPS at 100 ng/ml) [%] | inhibition at 10 µM ([2]; HEK293, stimulated with Flagellin at 100 ng/ml) [%] | inhibition at 10 µM ([3]; HEK293, stimulated with CL097 at 1 μg/ml) [%] | Average % Inhibition at TLR4 [1] [%] | Average % Inhibition at TLR5 [2] [%] | Average % Inhibition at TLR7 [3] [%]
COC1=C[C@@H]2[C@@H]3Cc4ccc(OC)c(O)c4[C@]2(CCN3C)CC1=O [Sinomenine, sinomenine] | 24 | 19 | 20 |  |  | 
COc1ccc2c(c1O)[C@@]13CCN(C)[C@@H](C2)[C@H]1CC(OC)C(=O)C3 (stereo partly drawn) [Dihydrosinomenine, dihydrosinomenine] |  |  |  | 23 | 16 | 11
C=CCN1CC[C@]23c4c5ccc(O)c4O[C@H]2C(=O)CC[C@]3(O)[C@H]1C5 [(+)-Naloxone, (+)-naloxone] |  |  |  | 25 | 17 | 18
